Key:
Assay in all cases: relative viability (nuclei count vs DMSO), 5 days (fraction); higher = more cells survive
NCI-H2228 = details: first compound 4 µM
How it was run: (§1)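 A single step with final 0.05% Triton X-100, 1% formaldehyde and 1 ug/ml Hoechst fixed the cells and stained nuclei 5 days after treatment. Lung cancer cell lines in 1536-well plates had been treated by pin tool the day after seeding with one drug alone or a fixed anchor-drug dose plus five library-drug doses (not always all listed) in √10 steps, and nuclei were counted on 4× images. Relative viability is the ratio of nuclei in treated wells to nuclei in vehicle wells, taken as the median of duplicate plates.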

LOU-NH91 = system: LOU-NH91
How it was run: as §1

NCI-H1437 = system: NCI-H1437
How it was run: as §1

NCI-H1734 = system: NCI-H1734
How it was run: as §1

NCI-H1792 = system: NCI-H1792
How it was run: as §1

NCI-H1355 = system: NCI-H1355
How it was run: as §1

NCI-H2009 = system: NCI-H2009
How it was run: as §1

SK-MES-1 = system: SK-MES-1
How it was run: as §1

EKVX = system: EKVX
How it was run: as §1

HCC-44 = system: HCC-44
How it was run: as §1

NCI-H1395 = system: NCI-H1395
How it was run: as §1

NCI-H647 = system: NCI-H647
How it was run: as §1

LC-2-ad = system: LC-2-ad
How it was run: as §1

COc1cc(N2CCC(C(N)=O)CC2)ccc1Nc1nc(N)c(Cl)c(Nc2ccccc2S(=O)(=O)C(C)C)n1 [HG-5-88-01] + CC(=O)Nc1cccc(-n2c(=O)n(C3CC3)c(=O)c3c(Nc4ccc(I)cc4F)n(C)c(=O)c(C)c32)c1 [Trametinib] (partner 0.02 µM)
relative viability (NCI-H2228): 0.231
relative viability (LOU-NH91; first compound 0.04 µM): 0.74
relative viability (LOU-NH91; first compound 0.1265 µM): 0.787
relative viability (LOU-NH91; first compound 0.4 µM): 0.602
relative viability (LOU-NH91; first compound 1.265 µM): 0.567
relative viability (LOU-NH91; first compound 4 µM): 0.579
relative viability (NCI-H1437; first compound 0.04 µM): 0.581
relative viability (NCI-H1437; first compound 0.1265 µM): 0.56
relative viability (NCI-H1437; first compound 0.4 µM): 0.447
relative viability (NCI-H1437; first compound 1.265 µM): 0.475
relative viability (NCI-H1437; first compound 4 µM): 0.333
relative viability (NCI-H1734; first compound 0.04 µM): 0.669
relative viability (NCI-H1734; first compound 0.1265 µM): 0.755
relative viability (NCI-H1734; first compound 0.4 µM): 0.643
relative viability (NCI-H1734; first compound 1.265 µM): 0.623
relative viability (NCI-H1734; first compound 4 µM): 0.621
relative viability (NCI-H1792; first compound 0.04 µM): 0.444
relative viability (NCI-H1792; first compound 0.1265 µM): 0.535
relative viability (NCI-H1792; first compound 0.4 µM): 0.401
relative viability (NCI-H1792; first compound 1.265 µM): 0.432
relative viability (NCI-H1792; first compound 4 µM): 0.576
relative viability (NCI-H1355; first compound 0.04 µM): 0.439
relative viability (NCI-H1355; first compound 0.1265 µM): 0.351
relative viability (NCI-H1355; first compound 0.4 µM): 0.407
relative viability (NCI-H1355; first compound 1.265 µM): 0.298
relative viability (NCI-H1355; first compound 4 µM): 0.323
relative viability (NCI-H2009; first compound 0.04 µM): 0.272
relative viability (NCI-H2009; first compound 0.1265 µM): 0.271
relative viability (NCI-H2009; first compound 0.4 µM): 0.264
relative viability (NCI-H2009; first compound 1.265 µM): 0.211
relative viability (NCI-H2009; first compound 4 µM): 0.295
relative viability (SK-MES-1; first compound 0.04 µM): 0.535
relative viability (SK-MES-1; first compound 0.1265 µM): 0.54
relative viability (SK-MES-1; first compound 0.4 µM): 0.503
relative viability (SK-MES-1; first compound 1.265 µM): 0.498
relative viability (SK-MES-1; first compound 4 µM): 0.619
relative viability (EKVX; first compound 0.04 µM): 0.367
relative viability (EKVX; first compound 0.1265 µM): 0.36
relative viability (EKVX; first compound 0.4 µM): 0.278
relative viability (EKVX; first compound 4 µM): 0.266
relative viability (HCC-44; first compound 0.04 µM): 1.04
relative viability (HCC-44; first compound 0.1265 µM): 1.03
relative viability (HCC-44; first compound 0.4 µM): 1.1
relative viability (HCC-44; first compound 1.265 µM): 1.07
relative viability (HCC-44; first compound 4 µM): 1.01
relative viability (NCI-H1395; first compound 0.04 µM): 1
relative viability (NCI-H1395; first compound 0.1265 µM): 1.21
relative viability (NCI-H1395; first compound 0.4 µM): 1.08
relative viability (NCI-H1395; first compound 1.265 µM): 0.773
relative viability (NCI-H1395; first compound 4 µM): 1.13
relative viability (NCI-H647; first compound 0.04 µM): 0.436
relative viability (NCI-H647; first compound 0.1265 µM): 0.444
relative viability (NCI-H647; first compound 1.265 µM): 0.488
relative viability (NCI-H647; first compound 4 µM): 0.527
relative viability (LC-2-ad; first compound 0.04 µM): 0.934
relative viability (LC-2-ad; first compound 0.1265 µM): 0.86
relative viability (LC-2-ad; first compound 0.4 µM): 0.865
relative viability (LC-2-ad; first compound 1.265 µM): 0.896
relative viability (LC-2-ad; first compound 4 µM): 0.993

From the supplement of paper PMC10307832
